AC50 data for one molecule are collected here from ChEMBL document CHEMBL5291721, “A preclinical secondary pharmacology resource illuminates target-adverse drug reaction associations of marketed drugs” (Nat Commun, 2023).

Targets include Motilin receptor (Homo sapiens, UniProt O43193); D(3) dopamine receptor (Homo sapiens, UniProt P35462); Adenosine receptor A2a (Homo sapiens, UniProt P29274); Vasopressin V2 receptor (Homo sapiens, UniProt P30518); Histamine H3 receptor (Homo sapiens, UniProt Q9Y5N1).
The target in assay [1] is Beta-2 adrenergic receptor (Homo sapiens, UniProt P07550).
Sequence of Beta-2 adrenergic receptor (P07550 whole entry): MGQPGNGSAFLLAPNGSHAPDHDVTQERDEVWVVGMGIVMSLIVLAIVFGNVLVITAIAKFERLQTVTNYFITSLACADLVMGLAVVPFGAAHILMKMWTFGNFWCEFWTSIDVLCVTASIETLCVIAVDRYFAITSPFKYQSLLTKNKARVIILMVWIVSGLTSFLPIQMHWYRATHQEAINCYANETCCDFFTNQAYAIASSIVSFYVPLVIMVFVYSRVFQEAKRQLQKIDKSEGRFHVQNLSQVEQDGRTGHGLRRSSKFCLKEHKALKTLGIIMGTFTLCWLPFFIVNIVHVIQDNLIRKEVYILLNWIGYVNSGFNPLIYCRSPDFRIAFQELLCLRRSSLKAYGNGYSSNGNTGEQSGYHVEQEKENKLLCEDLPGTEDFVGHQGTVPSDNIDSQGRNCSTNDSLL
Assay [2] concerns the target 3',5'-cyclic-AMP phosphodiesterase 4D (Homo sapiens, UniProt Q08499). In kind it is functional.
Assay [3] deals with T1, 5-hydroxytryptamine receptor 2C (Homo sapiens, UniProt P28335).
T1 sequence (P28335 whole entry): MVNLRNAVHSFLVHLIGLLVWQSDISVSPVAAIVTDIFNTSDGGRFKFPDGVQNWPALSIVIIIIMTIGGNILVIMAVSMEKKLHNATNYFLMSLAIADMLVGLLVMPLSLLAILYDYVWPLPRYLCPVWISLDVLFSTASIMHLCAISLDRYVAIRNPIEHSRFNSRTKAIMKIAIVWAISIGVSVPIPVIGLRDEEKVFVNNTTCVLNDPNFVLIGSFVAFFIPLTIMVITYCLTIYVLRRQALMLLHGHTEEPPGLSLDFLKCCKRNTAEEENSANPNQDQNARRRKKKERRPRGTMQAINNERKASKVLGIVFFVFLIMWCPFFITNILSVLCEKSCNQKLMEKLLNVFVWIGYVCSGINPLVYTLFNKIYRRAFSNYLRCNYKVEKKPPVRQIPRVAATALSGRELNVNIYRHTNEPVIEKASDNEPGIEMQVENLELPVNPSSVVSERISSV

For assay [4], the target named is T2, Alpha-1A adrenergic receptor (Homo sapiens, UniProt P35348).
T2 sequence (P35348 whole entry): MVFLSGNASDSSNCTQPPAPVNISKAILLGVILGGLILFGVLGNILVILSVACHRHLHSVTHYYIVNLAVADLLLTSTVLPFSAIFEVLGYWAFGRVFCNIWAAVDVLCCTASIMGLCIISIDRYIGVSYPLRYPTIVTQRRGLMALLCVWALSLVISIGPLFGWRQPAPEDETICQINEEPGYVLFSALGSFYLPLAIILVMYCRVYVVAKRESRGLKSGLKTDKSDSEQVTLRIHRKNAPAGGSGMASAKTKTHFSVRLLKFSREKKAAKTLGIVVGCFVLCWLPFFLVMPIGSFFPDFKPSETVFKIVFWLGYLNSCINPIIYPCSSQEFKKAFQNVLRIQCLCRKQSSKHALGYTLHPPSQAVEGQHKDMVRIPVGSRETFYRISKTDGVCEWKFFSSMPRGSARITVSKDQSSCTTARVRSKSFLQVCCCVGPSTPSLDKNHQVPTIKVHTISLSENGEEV
Type of assay: functional, cell-based.

A further assay deals with Histamine H2 receptor (Homo sapiens, UniProt P25021). In kind it is functional, cell-based.
Sequence of Histamine H2 receptor (P25021 whole entry): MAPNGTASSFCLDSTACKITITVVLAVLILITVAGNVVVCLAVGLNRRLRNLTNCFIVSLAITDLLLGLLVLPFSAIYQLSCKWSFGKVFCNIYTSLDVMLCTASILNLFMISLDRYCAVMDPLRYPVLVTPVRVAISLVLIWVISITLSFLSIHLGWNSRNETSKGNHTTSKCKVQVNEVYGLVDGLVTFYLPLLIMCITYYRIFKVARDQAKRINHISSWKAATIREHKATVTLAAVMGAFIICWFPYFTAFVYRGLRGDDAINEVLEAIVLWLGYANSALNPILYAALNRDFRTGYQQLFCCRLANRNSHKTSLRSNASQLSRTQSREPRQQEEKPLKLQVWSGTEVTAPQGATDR
Assay [5] concerns the target Kappa-type opioid receptor (Homo sapiens, UniProt P41145).
In assay [6] the target is T3, Equilibrative nucleoside transporter 1 (Homo sapiens, UniProt Q99808).
T3 sequence (Q99808 whole entry): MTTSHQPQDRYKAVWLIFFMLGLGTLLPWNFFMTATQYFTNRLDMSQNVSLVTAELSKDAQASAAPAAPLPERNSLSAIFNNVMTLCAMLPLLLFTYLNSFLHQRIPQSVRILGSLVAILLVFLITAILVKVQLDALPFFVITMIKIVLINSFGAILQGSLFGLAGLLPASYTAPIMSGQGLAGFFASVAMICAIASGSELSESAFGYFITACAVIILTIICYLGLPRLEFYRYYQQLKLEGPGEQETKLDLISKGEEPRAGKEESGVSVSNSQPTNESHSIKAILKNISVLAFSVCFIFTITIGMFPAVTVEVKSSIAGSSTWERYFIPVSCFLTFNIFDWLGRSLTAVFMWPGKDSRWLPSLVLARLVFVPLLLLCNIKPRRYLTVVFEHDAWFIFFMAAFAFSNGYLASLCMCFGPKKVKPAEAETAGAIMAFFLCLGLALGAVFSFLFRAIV

Assay [7] addresses Muscarinic acetylcholine receptor M3 (Homo sapiens, UniProt P20309).
Assay [8] addresses cGMP-inhibited 3',5'-cyclic phosphodiesterase 3A (Homo sapiens, UniProt Q14432). In kind it is functional.
Assay [9] addresses Voltage-dependent L-type calcium channel subunit alpha-1C (Rattus norvegicus, UniProt P22002). Type of assay: functional.
Assay [10] concerns the target T4, Muscarinic acetylcholine receptor M2 (Homo sapiens, UniProt P08172).
T4 sequence (P08172 whole entry): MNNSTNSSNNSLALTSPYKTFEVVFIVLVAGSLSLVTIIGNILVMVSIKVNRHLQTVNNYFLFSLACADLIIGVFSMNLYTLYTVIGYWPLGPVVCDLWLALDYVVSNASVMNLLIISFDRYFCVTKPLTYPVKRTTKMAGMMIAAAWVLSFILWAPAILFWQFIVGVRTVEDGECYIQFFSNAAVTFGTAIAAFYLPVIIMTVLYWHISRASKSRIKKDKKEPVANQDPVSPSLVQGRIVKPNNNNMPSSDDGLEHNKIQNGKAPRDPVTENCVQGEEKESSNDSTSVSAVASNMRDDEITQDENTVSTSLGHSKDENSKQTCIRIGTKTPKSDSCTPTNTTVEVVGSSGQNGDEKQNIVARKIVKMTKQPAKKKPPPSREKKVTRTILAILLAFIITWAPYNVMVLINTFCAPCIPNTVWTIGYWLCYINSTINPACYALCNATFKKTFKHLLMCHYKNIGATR
Type of assay: functional, cell-based.

In assay [11] the target is Neuronal acetylcholine receptor subunit alpha-4 (Homo sapiens, UniProt P43681).
Also: assay procedure not described here.

Sequence of Adenosine receptor A2a (P29274 whole entry): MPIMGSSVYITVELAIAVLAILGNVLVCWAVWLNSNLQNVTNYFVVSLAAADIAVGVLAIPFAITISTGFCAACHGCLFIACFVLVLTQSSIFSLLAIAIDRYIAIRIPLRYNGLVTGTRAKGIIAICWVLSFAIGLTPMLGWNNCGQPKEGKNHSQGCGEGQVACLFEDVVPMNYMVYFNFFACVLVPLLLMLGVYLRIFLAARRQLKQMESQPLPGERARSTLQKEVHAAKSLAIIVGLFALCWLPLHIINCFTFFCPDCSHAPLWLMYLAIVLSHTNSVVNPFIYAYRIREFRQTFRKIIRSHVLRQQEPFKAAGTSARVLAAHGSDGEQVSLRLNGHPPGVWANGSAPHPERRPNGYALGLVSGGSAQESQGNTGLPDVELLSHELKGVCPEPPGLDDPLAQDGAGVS
Sequence of D(3) dopamine receptor (P35462 whole entry): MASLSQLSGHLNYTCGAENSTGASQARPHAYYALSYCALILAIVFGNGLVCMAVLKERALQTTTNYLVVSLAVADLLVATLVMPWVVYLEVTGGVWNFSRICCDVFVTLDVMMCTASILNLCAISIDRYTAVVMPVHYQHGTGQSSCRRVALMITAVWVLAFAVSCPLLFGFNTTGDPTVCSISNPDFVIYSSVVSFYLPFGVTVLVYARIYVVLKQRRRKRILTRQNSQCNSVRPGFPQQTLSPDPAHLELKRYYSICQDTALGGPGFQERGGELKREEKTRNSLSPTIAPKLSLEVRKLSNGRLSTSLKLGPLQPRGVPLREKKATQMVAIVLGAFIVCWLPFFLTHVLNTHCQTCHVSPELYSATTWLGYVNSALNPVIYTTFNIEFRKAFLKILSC
Sequence of Histamine H3 receptor (Q9Y5N1 whole entry): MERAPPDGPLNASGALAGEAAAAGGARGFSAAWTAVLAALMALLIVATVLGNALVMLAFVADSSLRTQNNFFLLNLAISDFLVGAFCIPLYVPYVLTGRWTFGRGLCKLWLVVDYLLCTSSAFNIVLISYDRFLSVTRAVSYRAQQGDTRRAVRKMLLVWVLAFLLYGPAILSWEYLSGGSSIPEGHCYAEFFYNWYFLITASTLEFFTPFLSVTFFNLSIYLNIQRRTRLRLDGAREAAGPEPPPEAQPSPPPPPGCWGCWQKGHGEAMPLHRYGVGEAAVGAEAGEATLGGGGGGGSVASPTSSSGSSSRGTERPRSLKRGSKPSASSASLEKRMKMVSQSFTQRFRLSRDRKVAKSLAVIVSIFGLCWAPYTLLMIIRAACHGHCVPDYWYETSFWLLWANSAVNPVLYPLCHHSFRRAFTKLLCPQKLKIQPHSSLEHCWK
Sequence of Muscarinic acetylcholine receptor M3 (P20309 whole entry): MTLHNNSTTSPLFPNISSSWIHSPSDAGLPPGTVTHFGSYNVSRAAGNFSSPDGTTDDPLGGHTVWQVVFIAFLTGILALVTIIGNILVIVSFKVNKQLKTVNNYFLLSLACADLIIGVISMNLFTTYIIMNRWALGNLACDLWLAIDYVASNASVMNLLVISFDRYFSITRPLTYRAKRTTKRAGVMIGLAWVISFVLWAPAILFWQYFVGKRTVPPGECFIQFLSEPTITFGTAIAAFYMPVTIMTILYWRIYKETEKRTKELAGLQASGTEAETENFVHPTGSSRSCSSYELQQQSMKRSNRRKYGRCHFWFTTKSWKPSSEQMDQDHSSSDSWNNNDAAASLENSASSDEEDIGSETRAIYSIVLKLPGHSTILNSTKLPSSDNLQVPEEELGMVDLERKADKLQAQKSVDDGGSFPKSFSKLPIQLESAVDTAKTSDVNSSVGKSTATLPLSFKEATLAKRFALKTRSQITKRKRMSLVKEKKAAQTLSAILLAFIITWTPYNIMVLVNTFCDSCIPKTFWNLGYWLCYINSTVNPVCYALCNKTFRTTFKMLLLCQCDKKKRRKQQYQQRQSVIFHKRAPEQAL
Sequence of 3',5'-cyclic-AMP phosphodiesterase 4D (Q08499 whole entry): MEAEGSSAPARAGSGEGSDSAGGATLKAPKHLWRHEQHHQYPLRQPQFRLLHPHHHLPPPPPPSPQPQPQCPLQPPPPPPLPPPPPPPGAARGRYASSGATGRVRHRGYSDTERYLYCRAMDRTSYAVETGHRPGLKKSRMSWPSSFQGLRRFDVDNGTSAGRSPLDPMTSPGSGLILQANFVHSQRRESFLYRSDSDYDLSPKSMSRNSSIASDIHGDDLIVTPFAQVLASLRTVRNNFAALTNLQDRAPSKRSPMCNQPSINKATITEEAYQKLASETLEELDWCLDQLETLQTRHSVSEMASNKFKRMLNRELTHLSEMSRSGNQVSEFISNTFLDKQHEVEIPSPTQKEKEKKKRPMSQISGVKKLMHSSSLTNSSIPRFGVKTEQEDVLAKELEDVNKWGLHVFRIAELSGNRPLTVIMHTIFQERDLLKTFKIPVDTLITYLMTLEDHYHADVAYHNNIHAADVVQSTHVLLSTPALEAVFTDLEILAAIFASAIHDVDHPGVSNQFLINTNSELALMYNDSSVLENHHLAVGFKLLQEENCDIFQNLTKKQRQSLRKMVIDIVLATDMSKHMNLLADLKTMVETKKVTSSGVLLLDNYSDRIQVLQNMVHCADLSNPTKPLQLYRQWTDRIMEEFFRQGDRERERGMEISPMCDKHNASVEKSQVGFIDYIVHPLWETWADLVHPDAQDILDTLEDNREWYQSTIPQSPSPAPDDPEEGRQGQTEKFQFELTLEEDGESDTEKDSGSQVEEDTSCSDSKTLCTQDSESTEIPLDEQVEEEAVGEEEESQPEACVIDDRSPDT
Sequence of Kappa-type opioid receptor (P41145 whole entry): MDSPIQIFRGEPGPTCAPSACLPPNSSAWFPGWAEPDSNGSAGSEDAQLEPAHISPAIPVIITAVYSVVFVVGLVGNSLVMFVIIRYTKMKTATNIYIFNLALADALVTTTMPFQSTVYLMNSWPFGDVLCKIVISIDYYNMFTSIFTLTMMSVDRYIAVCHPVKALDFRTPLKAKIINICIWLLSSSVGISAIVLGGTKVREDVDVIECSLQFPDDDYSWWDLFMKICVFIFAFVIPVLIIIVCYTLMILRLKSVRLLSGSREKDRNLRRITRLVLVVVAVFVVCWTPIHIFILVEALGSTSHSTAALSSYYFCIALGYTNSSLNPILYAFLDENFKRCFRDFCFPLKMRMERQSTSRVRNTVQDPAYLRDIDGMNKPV
Sequence of Vasopressin V2 receptor (P30518 whole entry): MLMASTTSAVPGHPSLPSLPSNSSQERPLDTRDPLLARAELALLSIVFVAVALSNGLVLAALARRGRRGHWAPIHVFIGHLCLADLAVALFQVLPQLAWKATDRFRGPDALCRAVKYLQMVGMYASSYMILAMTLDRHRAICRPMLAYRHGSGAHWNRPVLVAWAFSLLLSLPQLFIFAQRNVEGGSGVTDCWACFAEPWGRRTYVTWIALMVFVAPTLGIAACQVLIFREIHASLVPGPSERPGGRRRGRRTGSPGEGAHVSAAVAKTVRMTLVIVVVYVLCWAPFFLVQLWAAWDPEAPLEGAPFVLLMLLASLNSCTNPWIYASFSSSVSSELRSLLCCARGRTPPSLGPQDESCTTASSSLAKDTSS
Sequence of Motilin receptor (O43193 whole entry): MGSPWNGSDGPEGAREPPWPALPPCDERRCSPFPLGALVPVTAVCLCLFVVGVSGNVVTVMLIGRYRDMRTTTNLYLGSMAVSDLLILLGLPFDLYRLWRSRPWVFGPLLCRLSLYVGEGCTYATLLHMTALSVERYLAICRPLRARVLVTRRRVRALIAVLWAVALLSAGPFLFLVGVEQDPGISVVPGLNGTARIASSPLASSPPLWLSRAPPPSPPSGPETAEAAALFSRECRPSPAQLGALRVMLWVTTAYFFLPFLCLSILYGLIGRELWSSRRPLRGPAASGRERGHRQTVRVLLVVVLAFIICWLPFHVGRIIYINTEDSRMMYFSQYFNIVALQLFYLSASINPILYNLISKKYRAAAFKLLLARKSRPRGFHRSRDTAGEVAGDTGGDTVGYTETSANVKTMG

Broadly, the AC50 is the concentration giving half of the maximal activity seen. For `COc1ccc(C(=O)Nc2ccccc2CCC2CCCCN2C)cc1` (configuration not stated) [ENCAINIDE], the AC50 was > 10 µM in assay [1]; > 10 µM on Motilin receptor; > 10 µM on D(3) dopamine receptor; > 30 µM in assay [2]; 0.81 µM in assay [3]; > 30 µM in assay [4]. Moreover, the half-maximal activity concentration (AC50) on Adenosine receptor A2a is > 30 µM; at Vasopressin V2 receptor it was > 30 µM; on Histamine H2 receptor it was > 10 µM; on Histamine H3 receptor, > 10 µM; in assay [5] it was 3.6 µM; in assay [6], > 30 µM. The AC50 was > 10 µM in assay [7]; > 30 µM in assay [8]; > 10 µM in assay [9]; > 10 µM in assay [10]; > 10 µM in [11].
